Data: patent EP3800188A1, “SUBSTITUTED PYRAZOLOPYRIMIDINES AS IRAK4 INHIBITORS” (Bayer AG, priority 2019, dated 2021)

Columns and labels:
[1] = Metabolic stability in human liver microsomes; settings: 1 µM compound; for CLblood, human microsomes: hepatic in vivo blood clearance calculated with well stirred liver model, '(stable)' given beside < 0.01; for Fmax, human microsomes: maximal oral bioavailability calculated with well stirred liver model, 0.5 mg/mL protein, '(stable)' given beside 100
Procedure: The in vitro metabolic stability of test compounds was determined by incubating them at 1 µM in a suspension liver microsomes in 100 mM phosphate buffer, pH7.4 (NaH2PO4 x H2O + Na2HPO4 x 2H2O) and at a protein concentration of 0.5 mg/mL at 37° C. The microsomes were activated by adding a co-factor mix containing 8 mM Glukose-6-Phosphat, 4 mM MgCl2, 0.5 mM NADP and 1 IU/mL G-6-P-Dehydrogenase in phosphate buffer, pH 7.4. The metabolic assay was started shortly afterwards by adding the test compound to the incubation at a final volume of 1 mL. Organic solvent in the incubations was limited to ≤0.01 % dimethylsulfoxide (DMSO) and ≤1% acetonitril. During incubation, the microsomal suspensions were continuously shaken at 580 rpm, and aliquots were taken at 2, 8, 16, 30, 45 and 60 min, to which equal volumes of cold methanol were immediately added. Samples were frozen at -20° C over night, subsequently centrifuged for 15 min at 3000 rpm and the supernatant was analyzed with an Agilent 1200 HPLC-system with LCMS/MS detection.
The half-life of a test compound was determined from the concentration-time plot. From the half-life the intrinsic clearances were calculated. Together with the additional parameters liver blood flow, specific liver weight and microsomal protein content the hepatic in vivo blood clearance (CL) and the maximal oral bioavailability (Fmax) were calculated using the "well stirred" liver model. The following parameter values were used: Liver blood flow - 1.32 L/h/kg (human), 2.1 L/h/kg (dog); specific liver weight - 21 g/kg (human), 39 g/kg (dog); microsomal protein content - 40 mg/g.

[2] = Metabolic stability in dog liver microsomes; format: in vitro ADME; settings: 1 µM compound; for CLblood, dog microsomes: hepatic in vivo blood clearance calculated with well stirred liver model, '(stable)' given beside < 0.01; for Fmax, dog microsomes: maximal oral bioavailability calculated with well stirred liver model, 0.5 mg/mL protein, '(stable)' given beside 100
Procedure: From the half-life the intrinsic clearances were calculated.

[3] = biological target: T1, human IRAK4 (Homo sapiens, UniProt Q9NWZ3); assay: Human IRAK4 kinase activity inhibition assay (IRAK4 TR-FRET assay); format: biochemical; settings: 1 mM ATP, GST-human IRAK4, average or median values
T1 construct: GST (N); made in house; host or cells: baculovirus-infected Hi5 (BTI-TN-5B1-4) insect cells
T1 sequence (Q9NWZ3 1-460): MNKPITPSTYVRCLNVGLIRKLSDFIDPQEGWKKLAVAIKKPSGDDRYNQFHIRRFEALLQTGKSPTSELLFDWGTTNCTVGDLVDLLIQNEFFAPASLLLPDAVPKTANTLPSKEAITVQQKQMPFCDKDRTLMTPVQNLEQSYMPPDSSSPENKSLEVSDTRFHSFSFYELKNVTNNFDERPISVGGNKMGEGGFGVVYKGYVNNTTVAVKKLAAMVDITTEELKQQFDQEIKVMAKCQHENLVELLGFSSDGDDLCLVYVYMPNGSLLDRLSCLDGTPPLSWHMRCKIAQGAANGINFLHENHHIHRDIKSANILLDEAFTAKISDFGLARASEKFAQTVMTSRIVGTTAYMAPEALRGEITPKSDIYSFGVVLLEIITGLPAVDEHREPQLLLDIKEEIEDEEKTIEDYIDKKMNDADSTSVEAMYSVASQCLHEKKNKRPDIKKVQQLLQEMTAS
Outline: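 GST-IRAK4 from insect cells (about 0.2 nM, linear range) was preincubated 15 min with compound (11 concentrations, 20 µM–0.073 nM) in HEPES pH 7.5 with MgCl2 and DTT before kinase reaction on a biotinylated peptide. Phosphopeptide was detected by TR-FRET (Eu anti-mouse-IgG/anti-phosphoserine/streptavidin-XL665, 1 h at 22°C) as the 665/620 nm ratio, normalized to no-compound and no-enzyme controls.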

CLblood, human microsomes [1]	Fmax, human microsomes [1]	CLblood, dog microsomes [2]	Fmax, dog microsomes [2]	IC50 [3]	SMILES
0.28 L/h/kg	79%	0.10 L/h/kg	95%	7.31 nM	O[C@H]1C[C@@H](Nc2nc(N3CC(N4CCOCC4)C3)c3cnn(-c4cccc(C(F)(F)F)c4)c3n2)C1 [Example I-72, cis-3-({4-[3-(morpholin-4-yl)azetidin-1-yl]-1-[3-(trifluoromethyl)phenyl]-1H-pyrazolo[3,4-d]pyrimidin-6-yl}amino)cyclobutanol]
< 0.01 (stable) L/h/kg	100 (stable) %	< 0.01 (stable) L/h/kg	100 (stable) %	3.33 nM	CN1CC[C@H](Nc2nc(N3CCC(C(C)(C)O)CC3)c3cnn(-c4cccc(C(F)F)c4)c3n2)C1 [II-4, 2-[1-(1-[3-(difluoromethyl)phenyl]-6-{[(3S)-1-methylpyrrolidin-3-yl]amino}-1H-pyrazolo-[3,4-d]pyrimidin-4-yl)piperidin-4-yl]propan-2-ol]
0.10 L/h/kg	93%	0.24 L/h/kg	89%	3.45 nM	CC(C)(O)C1CCN(c2nc(NC3CCS(=O)(=O)CC3)nc3c2cnn3-c2cccc(C(F)F)c2)CC1 [II-5, 2-(1-{1-[3-(difluoromethyl)phenyl]-6-[(1,1-dioxidotetrahydro-2H-thiopyran-4-yl)amino]-1H-pyrazolo[3,4-d]pyrimidin-4-yl}piperidin-4-yl)propan-2-ol]
0.19 L/h/kg	86%	0.46 L/h/kg	78%	5.49 nM	CC(C)(O)C1CCN(c2nc(N[C@H]3CCS(=O)(=O)C3)nc3c2cnn3-c2cccc(C(F)F)c2)CC1 [II-6, 2-[1-(1-[3-(difluoromethyl)phenyl]-6-{[(3S)-1,1-dioxidotetrahydrothiophen-3-yl]amino}-1H-pyrazolo[3,4-d]pyrimidin-4-yl)piperidin-4-yl]propan-2-ol]
0.25 L/h/kg	81%			2.67 nM	CC(C)(O)C1CCN(c2nc(N[C@H]3C[C@H](S(C)(=O)=O)C3)nc3c2cnn3-c2cccc(C(F)F)c2)CC1 [II-11, 2-[1-(1-[3-(difluoromethyl)phenyl]-6-{[trans-3-(methylsulfonyl)cyclobutyl]amino}-1H-pyrazolo[3,4-d]pyrimidin-4-yl)piperidin-4-yl]propan-2-ol]
< 0.01 (stable) L/h/kg	100 (stable) %			7.01 nM	CC(C)(O)CC1CN(c2nc(NC3CN(S(C)(=O)=O)C3)nc3c2cnn3-c2cccc(C(F)F)c2)C1 [II-14, 1-[1-(1-[3-(difluoromethyl)phenyl]-6-{[1-(methylsulfonyl)azetidin-3-yl]amino}-1H-pyrazolo[3,4-d]pyrimidin-4-yl)azetidin-3-yl]-2-methylpropan-2-ol]
< 0.01 (stable) L/h/kg	100 (stable) %			2.82 nM	CS(=O)(=O)[C@H]1C[C@H](Nc2nc(N3C[C@H](O)[C@@H](F)C3)c3cnn(-c4cccc(C(F)F)c4)c3n2)C1 [II-16-2, (3S,4S)-1-(1-[3-(difluoromethyl)phenyl]-6-{[trans-3-(methanesulfonyl)cyclobutyl]amino}-1H-pyrazolo[3,4-d]pyrimidin-4-yl)-4-fluoropyrrolidin-3-ol]
0.08 L/h/kg	94%			1.62 nM	CS(=O)(=O)[C@H]1C[C@H](Nc2nc(N3C[C@@H](O)[C@H](F)C3)c3cnn(-c4cccc(C(F)F)c4)c3n2)C1 [II-16-3, (3R,4R)-1-(1-[3-(difluoromethyl)phenyl]-6-{[trans-3-(methanesulfonyl)cyclobutyl]-amino)-1H-pyrazolo[3,4-d]pyrimidin-4-yl)-4-fluoropyrrolidin-3-ol]
0.23 L/h/kg	82%			1.63 nM	CC(C)(O)CC1CN(c2nc(N[C@H]3C[C@H](S(C)(=O)=O)C3)nc3c2cnn3-c2cccc(C(F)F)c2)C1 [II-19, 1-[1-(1-[3-(difluoromethyl)phenyl]-6-{[trans-3-(methylsulfonyl)cyclobutyl]amino}-1H-pyrazolo[3,4-d]pyrimidin-4-yl)azetidin-3-yl]-2-methylpropan-2-ol]
0.04 L/h/kg	97%			1.39 nM	CS(=O)(=O)N1CC(Nc2nc(N3CCC(C4(N)CC4)CC3)c3cnn(-c4cccc(C(F)F)c4)c3n2)C1 [II-20, 4-[4-(1-aminocyclopropyl)piperidin-1-yl]-1-[3-(difluoromethyl)phenyl]-N-[1-(methylsulfonyl)azetidin-3-yl]-1H-pyrazolo[3,4-d]pyrimidin-6-amine]
0.07 L/h/kg	95%			1.8 nM	CC1(N2CCOCC2)CN(c2nc(N[C@H]3C[C@H](S(C)(=O)=O)C3)nc3c2cnn3-c2cccc(C(F)F)c2)C1 [II-21, 1-[3-(difluoromethyl)phenyl]-4-[3-methyl-3-(morpholin-4-yl)azetidin-1-yl]-N-[trans-3-(methylsulfonyl)cyclobutyl]-1H-pyrazolo[3,4-d]pyrimidin-6-amine]
< 0.01 (stable) L/h/kg	100 (stable) %			5.65 nM	O[C@H]1C[C@@H](Nc2nc(N3CC(N4CCOCC4)C3)c3cnn(-c4cccc(C(F)F)c4)c3n2)C1 [II-24, cis-3-({1-[3-(difluoromethyl)phenyl]-4-[3-(morpholin-4-yl)azetidin-1-yl]-1H-pyrazolo[3,4-d]pyrimidin-6-yl}amino)cyclobutanol]
< 0.01 (stable) L/h/kg	100 (stable) %			4.75 nM	O=C1CN(C2CN(c3nc(N[C@H]4C[C@H](O)C4)nc4c3cnn4-c3cccc(C(F)F)c3)C2)CCN1 [II-27, 4-(1-{1-[3-(difluoromethyl)phenyl]-6-[(trans-3-hydroxycyclobutyl)amino]-1H-pyrazolo[3,4-d]pyrimidin-4-yl}azetidin-3-yl)piperazin-2-one]
0.29 L/h/kg	78%			9.22 nM	CCS(=O)(=O)N1CC(Nc2nc(N3CCC(C(C)(C)O)CC3)c3cnn(-c4cccc(C(F)F)c4)c3n2)C1 [II-31, 2-[1-(1-[3-(difluoromethyl)phenyl]-6-{[1-(ethylsulfonyl)azetidin-3-yl]amino}-1H-pyrazolo[3,4-d]pyrimidin-4-yl)piperidin-4-yl]propan-2-ol]
0.07 L/h/kg	95%			3.49 nM	CS(=O)(=O)[C@H]1C[C@H](Nc2nc(N3CC[C@@H](O)C3)c3cnn(-c4cccc(C(F)F)c4)c3n2)C1 [II-34, (3R)-1-(1-[3-(difluoromethyl)phenyl]-6-{[(1r,3R)-3-(methylsulfonyl)cyclobutyl]amino}-1H-pyrazolo[3,4-d]pyrimidin-4-yl)pyrrolidin-3-ol]
0.10 L/h/kg	93%			6.8 nM	C[C@@]1(O)CCN(c2nc(N[C@H]3C[C@H](S(C)(=O)=O)C3)nc3c2cnn3-c2cccc(C(F)F)c2)C1 [II-35, (3R)-1-(1-[3-(difluoromethyl)phenyl]-6-{[(1r,3R)-3-(methylsulfonyl)cyclobutyl]amino}-1H-pyrazolo[3,4-d]pyrimidin-4-yl)-3-methylpyrrolidin-3-ol]
0.14 L/h/kg	89%			6.61 nM	CS(=O)(=O)N1CC(Nc2nc(N3CCC(C4(N)CC4)CC3)c3cnn(-c4cccc(OC(F)F)c4)c3n2)C1 [IV-3, 4-[4-(1-aminocyclopropyl)piperidin-1-yl]-1-[3-(difluoromethoxy)phenyl]-N-[1-(methylsulfonyl)azetidin-3-yl]-1H-pyrazolo[3,4-d]pyrimidin-6-amine]
0.55 L/h/kg	58%			4.78 nM	CC(C)(O)CC1CN(c2nc(N[C@H]3C[C@H](S(C)(=O)=O)C3)nc3c2cnn3-c2cccc(OC(F)F)c2)C1 [IV-4, 1-[1-(1-[3-(difluoromethoxy)phenyl]-6-{[trans-3-(methylsulfonyl)cyclobutyl]amino}-1H-pyrazolo[3,4-d]pyrimidin-4-yl)azetidin-3-yl]-2-methylpropan-2-ol]

SMILES	CLblood, human microsomes [1]	Fmax, human microsomes [1]	CLblood, dog microsomes [2]	Fmax, dog microsomes [2]	IC50 [3]
CC(C)(O)C1CCN(c2nc(N[C@H]3C[C@@]4(CCN4)C3)nc3c2cnn3-c2cccc(C(F)F)c2)CC1 [II-18, 2-(1-{6-[(4r,6s)-1-azaspiro[3.3]heptan-6-ylamino]-1-[3-(difluoromethyl)phenyl]-1H-pyrazolo[3,4-d]pyrimidin-4-yl}piperidin-4-yl)propan-2-ol]	0.10 L/h/kg	93%			1.4 nM
